From patent publication US7365231B2, “Compound with antitumor activity and preparation method therefor” (National Taiwan University of Science & Technology, priority 2005, dated 2008)

Columns and labels:
Type in all cases: cell-based
A549/ATCC = assay: NCI panel growth inhibition, sulforhodamine B; details: Homo sapiens, NSCLC, drug for last 48 h of 72 h
ACHN = assay: NCI panel growth inhibition, sulforhodamine B; details: Homo sapiens, Renal cancer, drug for last 48 h of 72 h
CAKI-1 = assay: NCI panel growth inhibition, sulforhodamine B; details: Homo sapiens; CAKI-1, Renal cancer; drug for last 48 h of 72 h
COLO 205 = assay: NCI panel growth inhibition, sulforhodamine B; details: Homo sapiens; COLO 205, Colon cancer; drug for last 48 h of 72 h
HCT-15 = assay: NCI panel growth inhibition, sulforhodamine B; details: Homo sapiens; HCT-15, Colon cancer; drug for last 48 h of 72 h
HS 578T = assay: NCI panel growth inhibition, sulforhodamine B; details: Homo sapiens, Breast cancer, drug for last 48 h of 72 h
HT29 = assay: NCI panel growth inhibition, sulforhodamine B; details: Homo sapiens, HT-29; HT29, Colon cancer; drug for last 48 h of 72 h
IGROV1 = assay: NCI panel growth inhibition, sulforhodamine B; details: Homo sapiens, IGROV-1; IGROV1, Ovarian cancer; drug for last 48 h of 72 h
LOX IMVI = assay: NCI panel growth inhibition, sulforhodamine B; details: Homo sapiens, Melanoma, drug for last 48 h of 72 h
M14 = assay: NCI panel growth inhibition, sulforhodamine B; details: Homo sapiens; M14, Melanoma; drug for last 48 h of 72 h
MALME-3M = assay: NCI panel growth inhibition, sulforhodamine B; details: Homo sapiens, Melanoma, drug for last 48 h of 72 h
MCF-7 = assay: NCI panel growth inhibition, sulforhodamine B; details: Homo sapiens, MCF7; MCF-7, Breast cancer; drug for last 48 h of 72 h
MDA-N = assay: NCI panel growth inhibition, sulforhodamine B; details: Homo sapiens, Breast cancer, drug for last 48 h of 72 h
MOLT-4 = assay: NCI panel growth inhibition, sulforhodamine B; details: Homo sapiens; MOLT-4, Leukemia; drug for last 48 h of 72 h
NCI-H322M = assay: NCI panel growth inhibition, sulforhodamine B; details: Homo sapiens, NSCLC, drug for last 48 h of 72 h
RPMI-8226 = assay: NCI panel growth inhibition, sulforhodamine B; details: Homo sapiens; RPMI-8226, Leukemia; drug for last 48 h of 72 h
RXF-393 = assay: NCI panel growth inhibition, sulforhodamine B; details: Homo sapiens; RXF-393, Renal cancer; drug for last 48 h of 72 h
SF-268 = assay: NCI panel growth inhibition, sulforhodamine B; details: Homo sapiens; SF-268, CNS cancer; drug for last 48 h of 72 h
SK-MEL-28 = assay: NCI panel growth inhibition, sulforhodamine B; details: Homo sapiens; SK-MEL-28, Melanoma; drug for last 48 h of 72 h
SK-MEL-5 = assay: NCI panel growth inhibition, sulforhodamine B; details: Homo sapiens; SK-MEL-5, Melanoma; drug for last 48 h of 72 h
SN12C = assay: NCI panel growth inhibition, sulforhodamine B; details: Homo sapiens, Renal cancer, drug for last 48 h of 72 h
T-47D = assay: NCI panel growth inhibition, sulforhodamine B; details: Homo sapiens, T47D, Breast cancer, drug for last 48 h of 72 h
TK-10 = assay: NCI panel growth inhibition, sulforhodamine B; details: Homo sapiens; TK-10, Renal cancer; drug for last 48 h of 72 h
UACC-62 = assay: NCI panel growth inhibition, sulforhodamine B; details: Homo sapiens; UACC-62, Melanoma; drug for last 48 h of 72 h
[1] = system: NCI's human cancer cell lines; assay: NCI panel growth inhibition, whole panel summary; details: in vitro
Excerpt: Comparison of anticancer activities of the 1,3-substituted adamantane derivatives, 1,3-bis(4-aminophenyl)adamantane (1,3-DPANH2), 1,3-bis(4-(4-aminophenoxy)phenyl)adamantane (1,3-DPAONH2), 1,3-bis(4-(4-amino-3-hydroxy)phenyl)adamantane (1,3-DPA/OH/NH2) and 1,3-bis(4-(4-amino-2-trifluoromethylphenoxy)phenyl)adamantane (1,3-DPA/CF3/NH2) as shown in FIG. 1 were synthesized in the present invention. Those compounds were submitted to the National Cancer Institute for anticancer assay in culture against a standard panel of cell lines. […] To further confirm that the different substituents (CF3 and OH) on the phenyl ring of 1,3-DPAONH2 affect the growth inhibition of cancer cells. […] The transformations of 1,3-DPAONH2 to 1,3-DPA/OH/NH2 led to a remarked enhancement of anticancer activity toward all the tested cancer lines. The role of the OH group at the ortho position of the NH2 on growth inhibition is remarkable. In addition, one compound (1,3-DPA/OH/NH2) was confirmed to have an IC50 of <1 μM against one of the cells (BT-549 breast carcinoma). Comparison of anticancer activities of 1,3-substituted diaminophenyladamantane derivatives, the following order of potency against the tested cancer lines was observed: 1,3-DPA/OH/NH2>1,3-DPAONH2>1,3-DPANH2>1,3-DPA/CF3/NH2. […]

`Nc1ccc(Oc2ccc(C3(c4ccc(Oc5ccc(N)c(O)c5)cc4)C4CC5CC(C4)CC3C5)cc2)cc1O` [DPA, 2,2-bis(4-(4-amino-3-hydroxyphenoxy)phenyl)adamantane] was tested, and the IC50 (A549/ATCC) was 1940 nM, the IC50 (ACHN) was 1780 nM and the IC50 (CAKI-1) was 2320 nM. The IC50 (COLO 205) was 484 nM, the IC50 (HCT-15) was 1670 nM and the IC50 (HS 578T) was 2350 nM. For the same compound, the IC50 (HT29) was 1810 nM, the IC50 (IGROV1) was 1750 nM and the IC50 (LOX IMVI) was 1690 nM. For the same compound, the IC50 (M14) was 1690 nM, the IC50 (MALME-3M) was 2020 nM and the IC50 (MCF-7) was 1930 nM. It also gave an IC50 (MDA-N) of 2140 nM, an IC50 (MOLT-4) of 1450 nM and an IC50 (NCI-H322M) of 1410 nM. It also gave an IC50 (RPMI-8226) of 1920 nM, an IC50 (RXF-393) of 1820 nM and an IC50 (SF-268) of 1620 nM. It also gave an IC50 (SK-MEL-28) of 1680 nM, an IC50 (SK-MEL-5) of 1560 nM and an IC50 (SN12C) of 1830 nM. It also gave an IC50 (T-47D) of 4130 nM, an IC50 (TK-10) of 2160 nM and an IC50 (UACC-62) of 3210 nM. For the same compound, the “growth inhibitory activity against the tested cancer cell lines (in words)” value [1] was “strong growth inhibitory activities”.
